From publication PMC2999882 (Molecular pharmacology, 2008)
Read-outs that look alike come from different tables or passages of the source.

How the values were obtained:
5HT3 receptors [1] = target: T1, 5HT3 receptors (Homo sapiens, UniProt P46098); settings: cited from earlier work
T1 sequence (P46098 24-478): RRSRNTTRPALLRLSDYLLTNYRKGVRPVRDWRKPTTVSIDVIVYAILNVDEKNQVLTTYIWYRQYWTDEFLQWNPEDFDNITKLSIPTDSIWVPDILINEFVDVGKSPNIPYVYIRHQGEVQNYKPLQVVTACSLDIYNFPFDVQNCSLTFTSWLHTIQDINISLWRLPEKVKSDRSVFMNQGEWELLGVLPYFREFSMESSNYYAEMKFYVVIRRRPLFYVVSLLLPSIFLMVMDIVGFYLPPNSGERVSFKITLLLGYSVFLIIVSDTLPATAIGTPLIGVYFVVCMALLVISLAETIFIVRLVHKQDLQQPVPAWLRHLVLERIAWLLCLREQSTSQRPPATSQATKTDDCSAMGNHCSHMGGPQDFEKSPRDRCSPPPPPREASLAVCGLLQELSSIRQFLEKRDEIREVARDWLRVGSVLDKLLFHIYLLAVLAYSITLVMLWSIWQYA

α7 nAChR [2] = target: α7 nAChR (Homo sapiens, UniProt P36544)
[3] = target: T2, muscle type (α1β1εδ) nAChR (Homo sapiens, UniProt P02708+Q04844+Q07001); type: cell-based
α3β4 nAChR = α3β4 nAChR (Homo sapiens, UniProt P30926+P32297)
5HT3 receptors [4] = target: T1, 5HT3 receptors; type: cell-based
[5] = target: T2, muscle type (α1β1εδ) nAChR; type: cell-based; remark: listed apart in the source
5HT3 receptors [6] = target: T1, 5HT3 receptors; type: cell-based; remark: listed apart in the source
α4β2 nAChR [7] = target: T3, α4β2 nAChR (Homo sapiens, UniProt P17787+P43681); experiment: cell-based; type: cell-based
α4β2 nAChR [8] = target: T3, α4β2 nAChR; type: cell-based
α7 nAChR [9] = settings: binding and voltage-clamp experiments; ref Biton et al., 2007; cited from earlier work

Chain of α7 nAChR (Homo sapiens, UniProt P36544) (P36544 23-502): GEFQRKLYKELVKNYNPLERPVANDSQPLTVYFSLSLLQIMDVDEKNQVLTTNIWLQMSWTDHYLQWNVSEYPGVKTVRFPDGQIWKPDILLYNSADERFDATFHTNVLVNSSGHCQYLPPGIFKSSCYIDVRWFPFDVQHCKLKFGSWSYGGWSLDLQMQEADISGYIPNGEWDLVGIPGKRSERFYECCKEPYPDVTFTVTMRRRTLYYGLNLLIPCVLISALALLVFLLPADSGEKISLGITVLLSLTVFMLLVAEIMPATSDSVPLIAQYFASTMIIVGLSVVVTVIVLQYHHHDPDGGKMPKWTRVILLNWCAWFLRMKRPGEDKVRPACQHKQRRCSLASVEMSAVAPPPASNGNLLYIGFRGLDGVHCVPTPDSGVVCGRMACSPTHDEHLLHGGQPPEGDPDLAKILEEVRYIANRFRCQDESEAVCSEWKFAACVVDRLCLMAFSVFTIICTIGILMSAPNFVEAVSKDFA
Chain of α3β4 nAChR (P32297 32-505): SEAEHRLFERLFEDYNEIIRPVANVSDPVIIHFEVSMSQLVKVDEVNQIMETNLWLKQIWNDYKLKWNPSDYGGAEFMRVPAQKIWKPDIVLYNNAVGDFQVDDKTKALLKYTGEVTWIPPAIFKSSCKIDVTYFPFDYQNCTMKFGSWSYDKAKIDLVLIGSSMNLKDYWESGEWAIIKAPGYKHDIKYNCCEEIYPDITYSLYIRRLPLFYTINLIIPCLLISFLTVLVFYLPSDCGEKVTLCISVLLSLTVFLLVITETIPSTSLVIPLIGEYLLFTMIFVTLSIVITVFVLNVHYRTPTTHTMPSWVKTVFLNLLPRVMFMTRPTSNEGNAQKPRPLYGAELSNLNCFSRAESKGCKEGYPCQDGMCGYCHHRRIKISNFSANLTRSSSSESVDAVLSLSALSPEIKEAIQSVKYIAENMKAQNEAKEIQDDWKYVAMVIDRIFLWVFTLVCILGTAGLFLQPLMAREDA
Chain of α3β4 nAChR (P30926 22-498): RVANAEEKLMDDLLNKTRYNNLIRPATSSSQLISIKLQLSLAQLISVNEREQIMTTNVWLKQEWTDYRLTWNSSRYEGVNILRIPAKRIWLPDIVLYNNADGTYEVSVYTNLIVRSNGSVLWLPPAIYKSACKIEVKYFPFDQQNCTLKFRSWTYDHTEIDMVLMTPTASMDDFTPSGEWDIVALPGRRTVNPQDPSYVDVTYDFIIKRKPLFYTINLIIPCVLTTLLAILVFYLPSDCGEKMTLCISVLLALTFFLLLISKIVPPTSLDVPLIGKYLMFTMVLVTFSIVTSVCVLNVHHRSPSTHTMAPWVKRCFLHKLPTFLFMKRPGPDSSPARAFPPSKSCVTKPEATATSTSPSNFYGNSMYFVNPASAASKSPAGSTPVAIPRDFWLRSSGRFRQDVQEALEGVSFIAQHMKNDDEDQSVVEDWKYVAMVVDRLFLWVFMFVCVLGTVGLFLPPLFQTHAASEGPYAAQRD
T3 sequence (P43681 29-627 limits assumed): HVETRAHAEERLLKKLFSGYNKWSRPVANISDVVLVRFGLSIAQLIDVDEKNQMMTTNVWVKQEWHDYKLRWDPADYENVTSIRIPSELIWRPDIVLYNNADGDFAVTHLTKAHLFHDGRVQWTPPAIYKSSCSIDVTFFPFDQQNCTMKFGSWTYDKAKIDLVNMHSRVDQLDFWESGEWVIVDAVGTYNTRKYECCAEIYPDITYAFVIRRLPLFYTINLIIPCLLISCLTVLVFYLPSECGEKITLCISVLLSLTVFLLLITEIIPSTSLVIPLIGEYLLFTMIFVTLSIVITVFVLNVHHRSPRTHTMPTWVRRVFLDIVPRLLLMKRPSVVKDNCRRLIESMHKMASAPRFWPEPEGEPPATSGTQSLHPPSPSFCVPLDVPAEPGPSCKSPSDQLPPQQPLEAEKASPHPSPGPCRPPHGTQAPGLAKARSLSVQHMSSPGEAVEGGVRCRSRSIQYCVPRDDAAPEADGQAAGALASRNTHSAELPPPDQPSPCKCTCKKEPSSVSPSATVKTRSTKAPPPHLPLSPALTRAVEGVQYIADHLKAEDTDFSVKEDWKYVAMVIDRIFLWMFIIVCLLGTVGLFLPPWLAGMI
T3 sequence (P17787 26-502): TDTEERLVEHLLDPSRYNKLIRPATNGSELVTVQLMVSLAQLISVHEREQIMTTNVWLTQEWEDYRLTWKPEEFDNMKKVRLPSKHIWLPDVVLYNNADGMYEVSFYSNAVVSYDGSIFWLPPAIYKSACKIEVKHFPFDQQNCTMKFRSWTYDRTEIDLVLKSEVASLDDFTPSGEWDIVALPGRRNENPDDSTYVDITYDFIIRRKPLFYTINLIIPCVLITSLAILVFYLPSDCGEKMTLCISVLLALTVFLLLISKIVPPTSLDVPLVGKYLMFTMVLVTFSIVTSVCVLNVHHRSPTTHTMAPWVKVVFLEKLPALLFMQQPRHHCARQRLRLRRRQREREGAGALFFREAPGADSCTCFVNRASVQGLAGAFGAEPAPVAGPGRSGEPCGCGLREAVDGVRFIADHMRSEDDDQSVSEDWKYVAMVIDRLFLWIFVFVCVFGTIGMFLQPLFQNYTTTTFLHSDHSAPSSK
T2 sequence (P02708 21-457): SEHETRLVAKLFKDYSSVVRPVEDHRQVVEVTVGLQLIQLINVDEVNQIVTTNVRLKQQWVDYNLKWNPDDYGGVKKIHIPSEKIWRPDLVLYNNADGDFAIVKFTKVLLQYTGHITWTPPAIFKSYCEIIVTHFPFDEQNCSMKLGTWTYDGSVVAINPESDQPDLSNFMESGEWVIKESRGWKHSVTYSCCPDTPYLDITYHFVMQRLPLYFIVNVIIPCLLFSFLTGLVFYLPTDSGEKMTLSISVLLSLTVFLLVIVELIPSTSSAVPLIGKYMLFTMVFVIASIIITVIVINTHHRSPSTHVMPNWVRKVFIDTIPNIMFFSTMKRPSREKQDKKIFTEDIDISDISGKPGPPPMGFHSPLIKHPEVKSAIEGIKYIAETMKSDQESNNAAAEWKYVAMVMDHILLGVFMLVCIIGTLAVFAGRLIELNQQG
T2 sequence (P11230 24-501 partner): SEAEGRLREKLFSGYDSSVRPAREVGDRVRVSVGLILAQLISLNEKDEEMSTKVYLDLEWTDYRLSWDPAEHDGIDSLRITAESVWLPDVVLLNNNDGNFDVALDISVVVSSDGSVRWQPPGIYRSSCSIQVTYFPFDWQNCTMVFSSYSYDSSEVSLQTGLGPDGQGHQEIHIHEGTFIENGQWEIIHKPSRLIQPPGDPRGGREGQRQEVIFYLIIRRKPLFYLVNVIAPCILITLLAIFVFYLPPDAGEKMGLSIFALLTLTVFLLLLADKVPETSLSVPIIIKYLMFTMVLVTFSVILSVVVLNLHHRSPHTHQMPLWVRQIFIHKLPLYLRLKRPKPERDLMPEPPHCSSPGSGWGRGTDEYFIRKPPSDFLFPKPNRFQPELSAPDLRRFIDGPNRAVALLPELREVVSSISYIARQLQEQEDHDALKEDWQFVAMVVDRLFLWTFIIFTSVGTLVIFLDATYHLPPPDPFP
T2 sequence (Q04844 21-493): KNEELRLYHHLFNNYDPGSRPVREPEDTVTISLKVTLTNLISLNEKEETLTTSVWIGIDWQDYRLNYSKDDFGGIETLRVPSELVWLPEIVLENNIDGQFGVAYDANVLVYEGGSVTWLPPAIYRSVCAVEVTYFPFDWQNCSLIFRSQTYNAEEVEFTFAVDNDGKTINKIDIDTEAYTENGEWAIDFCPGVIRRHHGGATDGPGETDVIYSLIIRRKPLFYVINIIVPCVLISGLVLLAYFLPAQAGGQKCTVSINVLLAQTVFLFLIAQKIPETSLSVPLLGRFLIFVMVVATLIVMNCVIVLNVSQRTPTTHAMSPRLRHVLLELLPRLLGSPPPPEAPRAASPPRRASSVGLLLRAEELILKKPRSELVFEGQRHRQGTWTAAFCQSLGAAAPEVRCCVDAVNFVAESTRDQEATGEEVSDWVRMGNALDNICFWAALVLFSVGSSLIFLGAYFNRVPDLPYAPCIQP
T2 sequence (Q07001 22-517): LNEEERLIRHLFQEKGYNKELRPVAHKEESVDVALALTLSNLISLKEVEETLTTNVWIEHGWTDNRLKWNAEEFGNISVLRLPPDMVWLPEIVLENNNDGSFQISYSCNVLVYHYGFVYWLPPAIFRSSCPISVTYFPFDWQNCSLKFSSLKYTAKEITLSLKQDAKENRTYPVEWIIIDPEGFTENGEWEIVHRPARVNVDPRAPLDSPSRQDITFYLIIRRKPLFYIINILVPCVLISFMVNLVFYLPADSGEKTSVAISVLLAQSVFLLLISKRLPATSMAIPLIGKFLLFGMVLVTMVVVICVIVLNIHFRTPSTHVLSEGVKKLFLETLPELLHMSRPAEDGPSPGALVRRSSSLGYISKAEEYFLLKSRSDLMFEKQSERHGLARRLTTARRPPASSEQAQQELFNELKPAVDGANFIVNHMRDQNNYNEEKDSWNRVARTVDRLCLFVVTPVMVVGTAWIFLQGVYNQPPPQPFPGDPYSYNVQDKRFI

Compound	α7 Imax (α7 nAChR [2])	α1β1εδ Inhibition [3]	α3β4 Imax (α3β4 nAChR)	5HT3 Inhibition (5HT3 receptors [4])	α1β1εδ Activity [5]	5HT3 Activity (5HT3 receptors [6])	α4β2 Activity (α4β2 nAChR [7])	α4β2 Inhibition (α4β2 nAChR [8])	also measured
CN1[C@@H]2CC[C@H]1C[C@@H](OC(=O)c1c[nH]c3ccccc13)C2 [Tropisetron]									Effects on 5HT3 Receptors (5HT3 receptors [1]; ref Macor et al., 2001, Papke et al., 2005a): Competitive antagonist
OCCN1CCCC1 [1-(2-hydroxyethyl)pyrrolidine]									agonist activity on α7 (α7 nAChR [2]): inactive
C[N+]12CCC(CC1)CC2.[I-] [MQN, 1-methyl-1-azoniabicyclo[2.2.2]octane iodide]	1.0 ± 0.1	N.S.	0.025 ± 0.006	N.S.	N	N	N	72 ± 4%	agonist character at α7 (α7 nAChR [2]): fully effective; agonist character at α3β4 (α3β4 nAChR): essentially all activity was lost
O=C(N[C@H]1CN2CCC1CC2)c1cc2ccoc2cn1 [PHA-543,613, N-[(3R)-1-azabicyclo[2.2.2]oct-3-yl]furo[2,3-c]pyridine-5-carboxamide]									5HT3 receptors, inhibitory activity at (5HT3 receptors [1]; ref Wishka et al., 2006): Inhibitory activity at ≈ 600 nM
O=C1NCC2(CN3CCC2CC3)O1 (single isomer, unassigned; (-)) [AR-R17779, (−)-Spiro[1-azabicyclo[2.2.2]octane-3,5′-oxazolidin-2′-one]]									Effects on 5HT3 Receptors (5HT3 receptors [1]): None
C[N+]1(C)CCCCC1 [Dimethyl piperidinium]									Effects on 5HT3 Receptors (5HT3 receptors [1]): Antagonist activity reported
C(=C1\CN2CCC1CC2)/c1ccccc1.Cl [BQNE, E-3-benzylidene-1-azoniabicyclo[2.2.2]-octane chloride]	0.28 ± 0.01	70 ± 7%	<0.01	94 ± 5%	N	N	N	77 ± 2%	selectivity classification (α7 nAChR [2]): α7-selective
C[N+]1(C)CCCC(O)C1 (stereo not shown) [N,N-dimethyl-3-piperidinol]									agonist activity on α7 (α7 nAChR [2]): inactive
CN1[C@@H]2CC[C@H]1CC(=O)C2 [Tropinone]									Effects on 5HT3 Receptors (5HT3 receptors [1]): Neither agonist nor antagonist activity detected
COc1ccc(/C=C2/CN3CCC2CC3)cc1.Cl [MeOBQNE, (E)-3-(4-methoxybenzylidene)-1-azoniabicyclo[2.2.2]-octane chloride]	0.41 ± 0.03	90 ± 2%	<0.01	94 ± 5%	N	N	N	81 ± 2%	
OCCN1CCCCC1 [1-(2-hydroxyethyl)piperidine]									agonist activity on α7 (α7 nAChR [2]; 300 µM, data not shown): inactive
C(=C1/CN2CCC1CC2)/c1ccccc1.Cl [BQNZ, (Z)-3-benzylidene-1-azoniabicyclo[2.2.2]octane chloride]	0.11 ± 0.01	N.S.	0.10 ± 0.01	95 ± 4%	≈7%	N	≈1%	74 ± 6%	EC50 (α7 nAChR [2]): 7.3 ± 0.7 µM; agonist character at α3β4 (α3β4 nAChR): significant activation
CC[N+]12CCC(CC1)CC2.[I-] [EQN, 1-ethyl-1-azoniabicyclo[2.2.2]octane iodide]									agonist character at α7 (α7 nAChR [2]): weak partial agonist; mecamylamine-sensitive current, % of the total current (α7 nAChR [2]): 58 ± 3%; agonist character at α3β4 (α3β4 nAChR): comparable with the current evoked in uninjected oocytes
CN1[C@@H]2CCC[C@H]1CC2 [Tropane]									Effects on 5HT3 Receptors (5HT3 receptors [1]): Neither agonist nor antagonist activity detected
quinuclidinone [QN-O]	0.73 ± 0.04	N.S.	≥0.07±	N.S.	N	N	N	N.S.	selectivity classification (α7 nAChR [2]): α7-selective agonists; α7 potency, fold lower than related agonists that lack the oxygen group (e.g., ETMA and QN) (α7 nAChR [2]): at least 10 fold; EC50 (α7 nAChR [2]; read-out: α7 EC50): 78 ± 11 µM; EC50 (α3β4 nAChR; read-out: α3β4 EC50): > 1000 µM
C[N+](C)(C)C [TMA, tetramethyl-ammonium, reference compound]	1.1 ± 0.1	N.S.	0.55 ± 0.03	N.S.	<2%	N	19 ± 6%	N.S.	selectivity classification (α7 nAChR [2]): non-α7-selective; EC50 (α7 nAChR [2]; read-out: α7 EC50): 30 ± 3 µM; agonist character at α3β4 (α3β4 nAChR): partial agonists; EC50 (α3β4 nAChR; read-out: α3β4 EC50): 350 ± 190 µM; activation of muscle-type nAChRs [5]: detectable activation
O=C(N[C@@H]1C[C@H]2CCN(C2)C1)c1cc2ccoc2cn1 [PHA-709829, N-[(3R,5R)-1-azabicyclo[3.2.1]oct-3-yl]furo[2,3-c]pyridine-5-carboxamide]									5HT3 receptors, inhibitory activity at (5HT3 receptors [1]; ref Acker et al., 2008): Inhibitory activity at ≈ 300 nM
C1CN2CCC1CC2 [QN, quinuclidine]	1.03 ± 0.02	N.S.	0.64 ± 0.01	N.S.	3%	N	≈2%	74 ± 5%	EC50 (α7 nAChR [2]): 7.2 ± 0.5 µM; agonist character at α7 (α7 nAChR [2]): potent and fully efficacious agonist; selectivity classification (α7 nAChR [2]): non-α7-selective; α7 activation at 300 µM (α7 nAChR [2]): maximal activation; EC50 (α3β4 nAChR): 180 ± 10 µM; agonist character at α3β4 (α3β4 nAChR): partial agonist; α3β4 efficacy, % that of ACh (α3β4 nAChR): 64%; α3β4 response, % of the ACh maximum (α3β4 nAChR): 46 ± 2%; activation of muscle-type nAChRs [5]: detectable activation; Emax (α4β2 nAChR [7]; read-out: α4β2 response, % of the ACh maximal responses): 3.2 ± 0.7%
CC[N+](C)(C)CC [dEdMA, diethyldimethylammonium]	0.95 ± 0.06	N.S.	0.06 ± 0.01	N.S.	N	N	N	52 ± 5%	selectivity classification (α7 nAChR [2]): α7-selective agonists; EC50 (α7 nAChR [2]; read-out: α7 EC50): 197 ± 37 µM; α3β4 efficacy, fold difference (versus ETMA) (α3β4 nAChR): greater than 10 fold
COc1ccc(/C=C2\CN3CCC2CC3)cc1.Cl [MeOBQNZ, (Z)-3-(4-methoxybenzylidene)-1-azoniabicyclo[2.2.2]octane chloride]	0.09 ± 0.01	76 ± 6%	<0.01	80 ± 16%	≤1%	N	N	56 ± 4%	EC50 (α7 nAChR [2]): 1.1 ± 0.8 µM
CC(=O)OCC[N+](C)(C)C [ACh, acetylcholine, reference compound]	1.0								α3β4 Imax (α3β4 nAChR; peak current, relative to ACh maximum (ACh constrained to 1)): 1.0
O=C(Oc1ccc(Br)cc1)N1CCN2CCC1CC2 [SSR-180711]									agonist character at α7 (Summary) (α7 nAChR [9]): A relatively potent partial agonist with selectivity for α7 compared with other nAChR subtypes tested established by binding and voltage-clamp experiments.
CC[N+](C)(C)C [ETMA, reference compound]	1.0 ± 0.1	N.S.	0.78 ± 0.04	N.S.	N	N	≤2%	40 ± 9%	EC50 (α7 nAChR [2]; read-out: α7 EC50): 19 ± 2 µM; agonist character at α3β4 (α3β4 nAChR): partial agonists; EC50 (α3β4 nAChR; read-out: α3β4 EC50): 660 ± 90 µM
